Experimental data: patent publication US20170260226A1, “3-NITROGEN OR SULPHUR SUBSTITUTED OESTRA-1,3,5(10),16-TETRAENE AKR1C3 INHIBITORS” (BAYER PHARMA AKTIENGESELLSCHAFT, priority 2014, published 2017)

Assays:
AKR1C3 [1] = target: T1, AKR1C3 (Homo sapiens, UniProt P42330); assay: AKR1C3 enzyme inhibition assay (coumberone to coumberol fluorescence); format: biochemical; set-up: GST (cleaved yes); made in house; host or cells: E. coli; settings: mean values; 10 μM NADPH, 0.3 μM coumberone, 3 h at room temperature
T1 sequence (P42330 1-323): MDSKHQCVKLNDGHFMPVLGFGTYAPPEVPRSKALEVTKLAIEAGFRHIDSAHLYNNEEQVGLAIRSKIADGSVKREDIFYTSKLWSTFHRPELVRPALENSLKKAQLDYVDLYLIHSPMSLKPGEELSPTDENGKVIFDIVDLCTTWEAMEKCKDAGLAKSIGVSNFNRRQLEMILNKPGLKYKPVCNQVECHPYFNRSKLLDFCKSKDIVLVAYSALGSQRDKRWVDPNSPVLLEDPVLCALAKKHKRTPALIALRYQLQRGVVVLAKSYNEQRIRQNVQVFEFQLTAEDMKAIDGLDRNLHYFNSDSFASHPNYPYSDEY
Procedure: The AKR1C3-inhibitory action of the substances of this invention was measured in the AKR1C3 assay described in the paragraphs which follow.
Essentially, the enzyme activity is measured by quantifying the coumberol formed from coumberone (Halim, M., Yee, D., J., and Sames, D., J. A., M. (2008). Chem Soc 130, 14123-14128 and Yee, D., J., Balsanek, V., Bauman, D., R., Penning, T., M., and Sames, D. (2006). Proc Natl Acad Sci USA, 103, 13304-13309). In this assay, the increase in the highly fluorescent coumberol can be determined by NADPH (nicotinamide adenine dinucleotide phosphate)-dependent reduction of the nonfluorescent coumberone by AKR1C3.
The enzyme used was recombinant human AKR1C3 (aldo-keto reductase family 1 member C3) (GenBank Accession No. NM_003739). This was expressed as the GST (glutathione S-transferase) fusion protein in E. coli and purified by means of glutathione-Sepharose affinity chromatography. The GST was removed by thrombin digestion with subsequent size exclusion chromatography (Dufort, I., Rheault, P., Huang, X., F., Soucy, P., and Luu-The, V. (1999). Endocrinology,140, 568-574).
For the assay, 40-50 nl of a 100-fold concentrated solution of the test substance in DMSO were pipetted into a black low-volume 384-well microtitre plate (Greiner Bio-One, Frickenhausen, Germany), 2-2.5 μl of a solution of AKR1C3 in assay buffer [50 mM potassium phosphate buffer pH 7, 1 mM DTT, 0.0022% (w/v) Pluronic F-127, 0.01% BSA (w/v) and protease inhibitor cocktail (complete, EDTA-free Protease Inhibitor Cocktail from Roche)] were added and the mixture was incubated for 20 min, in order to enable preliminary binding of the substances to the enzyme prior to the enzyme reaction. Then the enzyme reaction was started by adding 2-2.5 μl of a solution of NADPH and coumberone in assay buffer (final assay concentration was 10 μM NADPH and 0.3 μM coumberone) and the resulting mixture was incubated at room temperature for 3 h. Typical concentrations were depending on the linear range of the enzyme reaction during the reaction time about 1 nM. The reaction was stopped by adding 2 μl of a stop solution consisting of the AKR1C3 inhibitor EM-1404 to a final concentration of 1 μM. Subsequently, the fluorescence of coumberol was measured at 520 nm (excitation at 380 nm) with a suitable measuring instrument (Pherastar, BMG). […] The data were normalized (enzyme+coumberon substrate in assay buffer=0% inhibition; coumberone substrate only in assay buffer=100% inhibition). Substances were usually tested at 11 different concentrations on the same microtiter plate in a range between 96.8 pM to 20 μM (20 μM, 5.9 μM, 1.7 μM, 0.5 μM, 0.15 μM, 44 nM, 12.9 nM, 3.8 nM, 1.1 nM, 0.3 nM and 96.8 pM). The dilutions were carried out on a 100 fold concentrated solution by serial dilution in duplicates. From the obtained data IC50 values were calculated by a 4-parameter fit.

AKR1C3 [2] = target: T1, AKR1C3; assay: AKR1C3 inhibition in a cell-based system (HEK293 cells transfected with AKR1C3 expression plasmid, coumberon substrate); set-up: expressed in transfected cells; host or cells: HEK293 cells (ATCC); settings: mean values; HEK293 cells transfected with AKR1C3, coumberon 6×10^−6M, 3 h; read-out: Cellular AKR1C3 inhibition IC50
Procedure: The inhibition of AKR1C3 by the substances described in this invention was measured in a cell-based assay using coumberon as the substrate for AKR1C3 (Halim, M., Yee, D., J., and Sames, D., J. (2008). Am Chem Soc, 130, 14123-14128 and Yee, D., J., Balsanek, V., Bauman, D., R., Penning, T., M., and Sames, D. (2006), Proc Natl Acad Sci USA 103, 13304-13309) (cf. Example 48).
The cell system used was HEK293 cells (ATCC, USA) (DMEM/F12, 10% FCS, 2 mM L-Glutamine, PSG). The cells were transfected with an AKR1C3 expression plasmid (pCMV6-AC-AKR1C3, GenBank Accession No. NM 003739.4), harvested after 24 hours and subsequently frozen. For assays, the frozen cells were thawed in assay medium (DMEM/F12 w/o phenolred, 0.005% Tween, 10% FCS, 2 mM L-Glutamine, PSG). Cells were seeded at 2500 cells/well into 384-well low volume or 1536-well plates (Greiner Bio-One, Frickenhausen, Germany) that contained 40-50 nl of a 100 fold concentrated compound solution in DMSO. After incubation at room temperature for 15 minutes, coumberon in PBS was added to a final concentration of 6×10^−6M. Following a 3 h incubation at room temperature, the reaction was stopped by lysing the cells with 0.4% Triton X-100. Coumberol fluorescence intensity was measured at 520 nm (excitation 380 nm) with a suitable measuring instrument (Pherastar, BMG). […] The data were normalized (transfected cells+coumberon=0% inhibition; no cells+coumberone=100% inhibition). Substances were usually tested at 11 different concentrations on the same microtiter plate in a range between 96.8 pM to 20 μM (20 μM, 5.9 μM, 1.7 μM, 0.5 μM, 0.15 μM, 44 nM, 12.9 nM, 3.8 nM, 1.1 nM, 0.3 nM and 96.8 pM). The dilutions were carried out on a 100 fold concentrated solution by serial dilution in duplicates. From the obtained data IC50 values were calculated by a 4-parameter fit.

IC50 (AKR1C3 [1]) [µM]	IC50 (AKR1C3 [2]) [µM]	SMILES
0.0086	0.15	C[C@]12CC[C@@H]3c4ccc(NC(=O)CCC(N)=O)cc4CC[C@H]3[C@@H]1CC=C2c1cncc(F)c1 [Example 26, N-[17-(5-fluoropyridin-3-yl)estra-1(10),2,4,16-tetraen-3-yl]butanediamide]
0.005	0.11	C[C@]12CC[C@@H]3c4ccc(NC(=O)CCCO)cc4CC[C@H]3[C@@H]1CC=C2c1cncc(F)c1 [Example 27, N-[17-(5-fluoropyridin-3-yl)estra-1(10),2,4,16-tetraen-3-yl]-4-hydroxybutanamide]
0.0032	5	CC(=O)NS(=O)(=O)CCC(=O)Nc1ccc2c(c1)CC[C@@H]1[C@@H]2CC[C@]2(C)C(c3cncc(F)c3)=CC[C@@H]12 [Example 29, 3-(acetylsulfamoyl)-N-[17-(5-fluoropyridin-3-yl)estra-1(10),2,4,16-tetraen-3-yl]propanamide]
0.0118	2.17	C[C@]12CC[C@@H]3c4ccc(NC(=O)CCc5nn[nH]n5)cc4CC[C@H]3[C@@H]1CC=C2c1cncc(F)c1 [Example 32, N-[17-(5-fluoropyridin-3-yl)estra-1(10),2,4,16-tetraen-3-yl]-3-(2H-tetrazol-5-yl)propanamide]
0.0053	0.1	CC(=O)Nc1ccc2c(c1)CC[C@@H]1[C@@H]2CC[C@]2(C)C(c3cncc(F)c3)=CC[C@@H]12 [Example 40, N-[17-(5-fluoropyridin-3-yl)estra-1(10),2,4,16-tetraen-3-yl]acetamide]
0.0083	8.09	C[C@]12CC[C@@H]3c4ccc(NC(=O)NCCC(=O)O)cc4CC[C@H]3[C@@H]1CC=C2c1cncc(F)c1 [Example 42, N-{[17-(5-fluoropyridin-3-yl)estra-1(10),2,4,16-tetraen-3-yl]carbamoyl}-beta-alanine]

The remaining lines, values behind:

SMILES	IC50 (AKR1C3 [1]) [µM]	IC50 (AKR1C3 [2]) [µM]
C[C@]12CC[C@@H]3c4ccc(NC(=O)CCC(=O)O)cc4CC[C@H]3[C@@H]1CC=C2c1cncnc1 [Example 25, 4-oxo-4-{[17-(pyrimidin-5-yl)estra-1(10),2,4,16-tetraen-3-yl]amino}butanoic acid]	0.313	8.34
CC(=O)NS(=O)(=O)CCC(=O)N(C)c1ccc2c(c1)CC[C@@H]1[C@@H]2CC[C@]2(C)C(c3cncc(F)c3)=CC[C@@H]12 [Example 31, 3-(acetylsulfamoyl)-N-[17-(5-fluoropyridin-3-yl)estra-1(10),2,4,16-tetraen-3-yl]-N-methylpropanamide]	0.0041	1.54
CN(C(=O)CCc1nn[nH]n1)c1ccc2c(c1)CC[C@@H]1[C@@H]2CC[C@]2(C)C(c3cncc(F)c3)=CC[C@@H]12 [Example 33, N-[17-(5-fluoropyridin-3-yl)estra-1(10),2,4,16-tetraen-3-yl]-N-methyl-3-(2H-tetrazol-5-yl)propanamide]	0.0025	0.26
CN(C(=O)CCC(=O)O)c1ccc2c(c1)CC[C@@H]1[C@@H]2CC[C@]2(C)C(c3cncc(F)c3)=CC[C@@H]12 [Example 35, 4-{[17-(5-fluoropyridin-3-yl)estra-1(10),2,4,16-tetraen-3-yl](methyl)amino}-4-oxobutanoic acid]	0.0032	0.21
CN(c1ccc2c(c1)CC[C@@H]1[C@@H]2CC[C@]2(C)C(c3cncc(F)c3)=CC[C@@H]12)S(=O)(=O)CCC(=O)O [Example 38, 3-{[17-(5-fluoropyridin-3-yl)estra-1(10),2,4,16-tetraen-3-yl](methyl)sulfamoyl}propanoic acid]	0.0049	0.86
C[C@]12CC[C@@H]3c4ccc(NS(=O)(=O)CCC(=O)O)cc4CC[C@H]3[C@@H]1CC=C2c1cncc(F)c1 [Example 39, 3-{[17-(5-fluoropyridin-3-yl)estra-1(10),2,4,16-tetraen-3-yl]sulfamoyl}propanoic acid]	0.003	5.1
CN(CCCC(=O)O)c1ccc2c(c1)CC[C@@H]1[C@@H]2CC[C@]2(C)C(c3cncc(F)c3)=CC[C@@H]12 [Example 44, 4-{[17-(5-fluoropyridin-3-yl)estra-1(10),2,4,16-tetraen-3-yl](methyl)amino}butanoic acid]	0.0185	1.12
Cc1cc(C2=CC[C@H]3[C@@H]4CCc5cc(NC(=O)CCC(=O)O)ccc5[C@H]4CC[C@]23C)cnn1 [Example 45, 4-{[17-(6-methylpyridazin-4-yl)estra-1(10),2,4,16-tetraen-3-yl]amino}-4-oxobutanoic acid]	0.0018	0.98
C[C@]12CC[C@@H]3c4ccc(S(C)(=N)=O)cc4CC[C@H]3[C@@H]1CC=C2c1cncc(F)c1 (stereo partly drawn) [Example 46, 17-(5-fluoropyridin-3-yl)-3-(S-methylsulfonimidoyl)estra-1(10),2,4,16-tetraene]	0.0022	0.03
